Source: PubChem BioAssay AID1745844 (Carcinogenic Potency Database (CPDB), 2022)
Activity calls are given as the source filed them. How the calls were made is not given here.

Test system: rodent lifetime carcinogenesis bioassay, tumor incidence TD50
Experiment: carcinogenic potency in animals, long-term in vivo studies, CPDB compilation (AID 1745844)
[1] = rat, strain Fischer 344, females, by gavage, site: any site (literature study), lesion: several types, types named in the paper, dosed 103 weeks, study length 105 weeks
[2] = rat, strain Fischer 344, males, by gavage, site: any site (literature study), lesion: several types, types named in the paper, dosed 103 weeks, study length 105 weeks

## C=CC(=O)NCO
mouse, strain B6C3F1, females, by gavage, site: Harderian gland + liver + lung + ovary, lesion: adenoma + adenoma, bilateral + hepatocellular adenoma + alveolar/bronchiolar adenoma + alveolar/bronchiolar carcinoma + granulosa-, dosed 103 weeks, study length 105 weeks
  TD50: 27.8 mg/kg/day
mouse, strain B6C3F1, females, by gavage, site: Harderian gland, lesion: adenoma + adenoma, bilateral + carcinoma, dosed 103 weeks, study length 105 weeks
  TD50: 44.6 mg/kg/day
mouse, strain B6C3F1, females, by gavage, site: Harderian gland, lesion: adenoma + adenoma, bilateral, dosed 103 weeks, study length 105 weeks
  TD50: 55.5 mg/kg/day
mouse, strain B6C3F1, females, by gavage, site: any site (literature study), lesion: several types, types named in the paper, dosed 103 weeks, study length 105 weeks
  TD50: 30.9 mg/kg/day
mouse, strain B6C3F1, females, by gavage, site: liver, lesion: hepatocellular adenoma + hepatocellular carcinoma + neoplastic nodule, dosed 103 weeks, study length 105 weeks
  TD50: 74.8 mg/kg/day
mouse, strain B6C3F1, females, by gavage, site: liver, lesion: hepatocellular adenoma + hepatocellular carcinoma, dosed 103 weeks, study length 105 weeks
  TD50: 74.8 mg/kg/day
mouse, strain B6C3F1, females, by gavage, site: liver, lesion: hepatocellular adenoma, dosed 103 weeks, study length 105 weeks
  TD50: 66.9 mg/kg/day
mouse, strain B6C3F1, females, by gavage, site: lung, lesion: alveolar/bronchiolar adenoma + alveolar/bronchiolar carcinoma, dosed 103 weeks, study length 105 weeks
  TD50: 111 mg/kg/day
mouse, strain B6C3F1, females, by gavage, site: ovary, lesion: granulosa-cell tumor, benign, dosed 103 weeks, study length 105 weeks
  TD50: 119 mg/kg/day
mouse, strain B6C3F1, males, by gavage, site: Harderian gland + liver + lung, lesion: adenoma + hepatocellular adenoma + hepatocellular carcinoma + alveolar/bronchiolar adenoma + alveolar/bronchiolar carcinoma, dosed 103 weeks, study length 105 weeks
  TD50: 13.3 mg/kg/day
mouse, strain B6C3F1, males, by gavage, site: Harderian gland, lesion: adenoma + carcinoma, dosed 103 weeks, study length 105 weeks
  TD50: 17.4 mg/kg/day
mouse, strain B6C3F1, males, by gavage, site: Harderian gland, lesion: adenoma, dosed 103 weeks, study length 105 weeks
  TD50: 17.5 mg/kg/day
mouse, strain B6C3F1, males, by gavage, site: any site (literature study), lesion: several types, types named in the paper, dosed 103 weeks, study length 105 weeks
  TD50: 22.3 mg/kg/day
mouse, strain B6C3F1, males, by gavage, site: liver, lesion: hepatocellular adenoma + hepatocellular carcinoma + neoplastic nodule, dosed 103 weeks, study length 105 weeks
  TD50: 29.4 mg/kg/day
mouse, strain B6C3F1, males, by gavage, site: liver, lesion: hepatocellular adenoma + hepatocellular carcinoma, dosed 103 weeks, study length 105 weeks
  TD50: 29.4 mg/kg/day
mouse, strain B6C3F1, males, by gavage, site: liver, lesion: hepatocellular adenoma, dosed 103 weeks, study length 105 weeks
  TD50: 50.2 mg/kg/day
mouse, strain B6C3F1, males, by gavage, site: liver, lesion: hepatocellular carcinoma, dosed 103 weeks, study length 105 weeks
  TD50: 63.4 mg/kg/day
mouse, strain B6C3F1, males, by gavage, site: lung, lesion: alveolar/bronchiolar adenoma + alveolar/bronchiolar carcinoma, dosed 103 weeks, study length 105 weeks
  TD50: 38.5 mg/kg/day
mouse, strain B6C3F1, males, by gavage, site: lung, lesion: alveolar/bronchiolar adenoma, dosed 103 weeks, study length 105 weeks
  TD50: 66 mg/kg/day
mouse, strain B6C3F1, males, by gavage, site: lung, lesion: alveolar/bronchiolar carcinoma, dosed 103 weeks, study length 105 weeks
  TD50: 75.1 mg/kg/day
[1]
  carcinogen call: negative (inactive)
[2]
  TD50: 3120 mg/kg/day
rat, strain Fischer 344, males, by gavage, site: skin, lesion: keratoacanthoma, dosed 103 weeks, study length 105 weeks
  TD50: 13 mg/kg/day (inactive)

## Nc1ccc(N(CCO)CCO)cc1
rat, strain F344/DuCrj, females, in feed, site: liver, lesion: hepatocellular adenoma, dosed 104 weeks, study length 104 weeks
  TD50: 7310 mg/kg/day (inactive)
rat, strain F344/DuCrj, males, in feed, site: liver, lesion: hepatocellular adenoma, dosed 104 weeks, study length 104 weeks
  carcinogen call: negative (inactive)
rat, strain F344/DuCrj, males, in feed, site: liver, lesion: hepatocellular carcinoma, dosed 104 weeks, study length 104 weeks
  carcinogen call: negative (inactive)

## CNC(=O)ON=CC(C)(C)SC
mouse, strain B6C3F1, females, in feed, site: any site (literature study), lesion: several types, types named in the paper, dosed 103 weeks, study length 103 weeks
  carcinogen call: negative (inactive)
mouse, strain B6C3F1, females, in feed, site: liver, lesion: hepatocellular adenoma + hepatocellular carcinoma + neoplastic nodule, dosed 103 weeks, study length 103 weeks
  TD50: 52.7 mg/kg/day
mouse, strain B6C3F1, males, in feed, site: any site (literature study), lesion: several types, types named in the paper, dosed 103 weeks, study length 103 weeks
  TD50: 1.74 mg/kg/day (inactive)
mouse, strain B6C3F1, males, in feed, site: liver, lesion: hepatocellular adenoma + hepatocellular carcinoma + neoplastic nodule, dosed 103 weeks, study length 103 weeks
  TD50: 2.83 mg/kg/day
mouse, strain B6C3F1, males, in feed, site: lung, lesion: alveolar/bronchiolar adenoma + alveolar/bronchiolar carcinoma, dosed 103 weeks, study length 103 weeks
  TD50: 14.8 mg/kg/day
rat, strain Fischer 344, females, in feed, site: any site (literature study), lesion: several types, types named in the paper, dosed 103 weeks, study length 105 weeks
  carcinogen call: negative (inactive)
rat, strain Fischer 344, males, in feed, site: any site (literature study), lesion: several types, types named in the paper, dosed 103 weeks, study length 105 weeks
  TD50: 10.4 mg/kg/day (inactive)
rat, strain Fischer 344, males, in feed, site: liver, lesion: hepatocellular adenoma + hepatocellular carcinoma + neoplastic nodule, dosed 103 weeks, study length 105 weeks
  TD50: 1.33 mg/kg/day

## CCc1cc(C(N)=S)ccn1
mouse, strain B6C3F1, females, in feed, site: any site (literature study), lesion: several types, types named in the paper, dosed 78 weeks, study length 104 weeks
  TD50: 450 mg/kg/day (inactive)
mouse, strain B6C3F1, males, in feed, site: any site (literature study), lesion: several types, types named in the paper, dosed 78 weeks, study length 104 weeks
  carcinogen call: negative (inactive)
mouse, strain BALB/c, females, by gavage, site: liver, lesion: papillary carcinoma, dosed 50 weeks, study length 69 weeks
  TD50: 240 mg/kg/day (inactive)
mouse, strain BALB/c, females, by gavage, site: lung, lesion: adenoma, dosed 50 weeks, study length 69 weeks
  TD50: 124 mg/kg/day (inactive)
mouse, strain BALB/c, females, by gavage, site: thyroid gland, lesion: carcinoma, dosed 50 weeks, study length 69 weeks
  TD50: 69.3 mg/kg/day
rat, strain Fischer 344, females, in feed, site: any site (literature study), lesion: several types, types named in the paper, dosed 78 weeks, study length 104 weeks
  carcinogen call: negative (inactive)
rat, strain Fischer 344, females, in feed, site: liver, lesion: hepatocellular adenoma + hepatocellular carcinoma + neoplastic nodule, dosed 78 weeks, study length 104 weeks
  TD50: 508 mg/kg/day
rat, strain Fischer 344, males, in feed, site: any site (literature study), lesion: several types, types named in the paper, dosed 78 weeks, study length 103 weeks
  carcinogen call: negative (inactive)
rat, strain Fischer 344, males, in feed, site: liver, lesion: hepatocellular adenoma + hepatocellular carcinoma + neoplastic nodule, dosed 78 weeks, study length 103 weeks
  TD50: 623 mg/kg/day

## CN(C)N=Nc1nc[nH]c1C(N)=O
mouse, strain Swiss, females, i.p., site: all sites, lesion: lymphosarcoma, dosed 26 weeks, study length 61 weeks
  TD50: 8 mg/kg/day
mouse, strain Swiss, females, i.p., site: any site (literature study), lesion: benign tumor, dosed 26 weeks, study length 61 weeks
  TD50: 7.03 mg/kg/day
mouse, strain Swiss, females, i.p., site: any site (literature study), lesion: malignant tumor, dosed 26 weeks, study length 61 weeks
  TD50: 0.807 mg/kg/day
mouse, strain Swiss, females, i.p., site: lung, lesion: several types, types named in the paper, dosed 26 weeks, study length 61 weeks
  TD50: 0.595 mg/kg/day
mouse, strain Swiss, females, i.p., site: spleen, lesion: hemangioendothelioma, dosed 26 weeks, study length 61 weeks
  TD50: 14.5 mg/kg/day
mouse, strain Swiss, females, i.p., site: uterus, lesion: adenocarcinoma, dosed 26 weeks, study length 61 weeks
  TD50: 3.2 mg/kg/day
mouse, strain Swiss, males, i.p., site: all sites, lesion: lymphatic leukemia, dosed 26 weeks, study length 78 weeks
  TD50: 13 mg/kg/day
mouse, strain Swiss, males, i.p., site: all sites, lesion: lymphosarcoma, dosed 26 weeks, study length 78 weeks
  TD50: 16.1 mg/kg/day
mouse, strain Swiss, males, i.p., site: any site (literature study), lesion: benign tumor, dosed 26 weeks, study length 78 weeks
  TD50: 10.6 mg/kg/day
mouse, strain Swiss, males, i.p., site: any site (literature study), lesion: malignant tumor, dosed 26 weeks, study length 78 weeks
  TD50: 1.54 mg/kg/day
mouse, strain Swiss, males, i.p., site: any site (literature study), lesion: several types, types named in the paper, dosed 26 weeks, study length 78 weeks
  TD50: 0.813 mg/kg/day
mouse, strain Swiss, males, i.p., site: liver, lesion: several types, types named in the paper, dosed 26 weeks, study length 78 weeks
  TD50: 98.8 mg/kg/day
mouse, strain Swiss, males, i.p., site: lung, lesion: several types, types named in the paper, dosed 26 weeks, study length 78 weeks
  TD50: 2.57 mg/kg/day
mouse, strain Swiss, males, i.p., site: spleen, lesion: several types, types named in the paper, dosed 26 weeks, study length 78 weeks
  TD50: 5.17 mg/kg/day
rat, strain Sprague-Dawley, females, in feed, site: mammary gland, lesion: adenofibroma, dosed 46 weeks, study length 60 weeks
  TD50: 0.71 mg/kg/day
rat, strain Sprague-Dawley, females, in feed, site: thymus gland, lesion: lymphosarcoma, dosed 46 weeks, study length 60 weeks
  TD50: 4.21 mg/kg/day
rat, strain Sprague-Dawley, females, in feed, site: uterus, lesion: leiomyosarcoma, dosed 46 weeks, study length 60 weeks
  TD50: 6.55 mg/kg/day

## CC1=CC(=O)CC(C)(C)C1
mouse, strain B6C3F1, females, by gavage, site: any site (literature study), lesion: several types, types named in the paper, dosed 103 weeks, study length 104 weeks
  carcinogen call: negative (inactive)
mouse, strain B6C3F1, females, by gavage, site: liver, lesion: hepatocellular adenoma + hepatocellular carcinoma + neoplastic nodule, dosed 103 weeks, study length 104 weeks
  TD50: 2740 mg/kg/day
mouse, strain B6C3F1, males, by gavage, site: all sites, lesion: leukemia, NOS + malignant lymphoma, histiocytic type + malignant lymphoma, mixed type + malignant lymphoma, lymphocytic type, dosed 103 weeks, study length 104 weeks
  TD50: 236 mg/kg/day
mouse, strain B6C3F1, males, by gavage, site: all sites, lesion: malignant lymphoma, histiocytic type + malignant lymphoma, mixed type + malignant lymphoma, lymphocytic type, dosed 103 weeks, study length 104 weeks
  TD50: 203 mg/kg/day
mouse, strain B6C3F1, males, by gavage, site: all sites, lesion: malignant lymphoma, histiocytic type, dosed 103 weeks, study length 104 weeks
  TD50: 244 mg/kg/day
mouse, strain B6C3F1, males, by gavage, site: liver, lesion: hepatocellular adenoma + hepatocellular carcinoma + neoplastic nodule, dosed 103 weeks, study length 104 weeks
  TD50: 573 mg/kg/day
mouse, strain B6C3F1, males, by gavage, site: liver, lesion: hepatocellular adenoma + hepatocellular carcinoma, dosed 103 weeks, study length 104 weeks
  TD50: 573 mg/kg/day
mouse, strain B6C3F1, males, by gavage, site: skin + subcutaneous tissue, lesion: fibroma + fibrosarcoma, dosed 103 weeks, study length 104 weeks
  TD50: 840 mg/kg/day
mouse, strain B6C3F1, males, by gavage, site: skin + subcutaneous tissue, lesion: fibroma + neurofibrosarcoma + fibrosarcoma + sarcoma, dosed 103 weeks, study length 104 weeks
  TD50: 882 mg/kg/day
mouse, strain B6C3F1, males, by gavage, site: skin + subcutaneous tissue, lesion: neurofibrosarcoma + fibrosarcoma + sarcoma, dosed 103 weeks, study length 104 weeks
  TD50: 1210 mg/kg/day
mouse, strain B6C3F1, males, by gavage, site: subcutaneous tissue, lesion: fibroma, dosed 103 weeks, study length 104 weeks
  TD50: 1210 mg/kg/day
mouse, strain B6C3F1, males, by gavage, site: subcutaneous tissue, lesion: fibrosarcoma + fibroma + neurofibrosarcoma + sarcoma, dosed 103 weeks, study length 104 weeks
  TD50: 703 mg/kg/day
mouse, strain B6C3F1, males, by gavage, site: subcutaneous tissue, lesion: fibrosarcoma + fibroma, dosed 103 weeks, study length 104 weeks
  TD50: 654 mg/kg/day
mouse, strain B6C3F1, males, by gavage, site: subcutaneous tissue, lesion: fibrosarcoma + neurofibrosarcoma + sarcoma, dosed 103 weeks, study length 104 weeks
  TD50: 1260 mg/kg/day
mouse, strain B6C3F1, males, by gavage, site: subcutaneous tissue, lesion: fibrosarcoma, dosed 103 weeks, study length 104 weeks
  TD50: 1170 mg/kg/day
[1]
  TD50: 16600 mg/kg/day (inactive)
[2]
  TD50: 237 mg/kg/day
rat, strain Fischer 344, males, by gavage, site: kidney + preputial gland, lesion: tubular-cell adenoma + tubular-cell adenocarcinoma + carcinoma, NOS, dosed 103 weeks, study length 105 weeks
  TD50: 774 mg/kg/day
rat, strain Fischer 344, males, by gavage, site: kidney, lesion: tubular-cell adenoma + tubular-cell adenocarcinoma, dosed 103 weeks, study length 105 weeks
  TD50: 1210 mg/kg/day
rat, strain Fischer 344, males, by gavage, site: liver, lesion: hepatocellular adenoma + hepatocellular carcinoma + neoplastic nodule, dosed 103 weeks, study length 105 weeks
  TD50: 9080 mg/kg/day
rat, strain Fischer 344, males, by gavage, site: preputial gland, lesion: carcinoma, NOS, dosed 103 weeks, study length 105 weeks
  TD50: 2250 mg/kg/day
